From paper PMC5201331, “Subchronic Toxicities of HZ1006, a Hydroxamate-Based Histone Deacetylase Inhibitor, in Beagle Dogs and Sprague-Dawley Rats” (International Journal of Environmental Research and Public …, 2016)

What was measured:
Beagle dogs = experiment: Subchronic toxicity test in Beagle dogs: organ weights; assay type: in vivo
Method: HZ1006 was administered orally to dogs (four/sex/group) at doses of 80, 40, 20, 5 and 0 (control) mg/kg/day, and the dosage volume was 2 mL/kg. The dogs received test doses with the exact amounts on a weekly basis based on current body weights. […] The other dogs in the above groups were dissected on the planned days. For the other groups, half of the dogs were anatomized on d28 and the remaining half on d42.
After euthanasia, the following organs or tissues were isolated from the dogs and rats: skin, abnormal lesions, spleen, mammary glands, jejunum, pancreas, ileum, duodenum, stomach, colon, cecum, lymph nodes, mesenteric salivary glands, liver, submandibular lymph nodes, thymus, sternum, lungs, heart, esophagus, trachea, tongue, thyroid with parathyroid gland, sciatic nerve, aorta, femurs, skeletal muscle, pituitary gland, brain, kidneys, eyes, urinary bladder, adrenal glands, uterus, ovaries, testes, epididymis and prostate. The weights of the animal organs, such as the liver, spleen, heart, thymus, brain, lungs, adrenal glands, kidneys, uterus, ovaries, epididymis and testes, were tested using an electronic balance. The organs or tissues were fixed using 10% neutral buffered formalin and were then gradient dehydrated, embedded, sectioned, and stained with routine hematoxylin-eosin prior to histopathological observations.

SD rats = experiment: Subchronic toxicity test in SD rats: clinical observation, body weight; assay type: in vivo; details: for body weight reduced compared with the control group: male rats, 120 mg/kg oral daily
Method: The rats that were judged suitable for the subchronic toxicity study were randomly divided into four groups (10 rats/sex/group). The rats received the test sample by gavage once daily for 28 days. HZ1006 was administered to the rats at doses of 120, 60, 20 and 0 (control) mg/kg, and the dosage volume was 5 mL/kg. Half of the 80 rats (half male and half female) were selected randomly according to body weight and dissected at d28. The remaining rats were dissected at d42.
Clinical symptoms and mortality were examined at least twice daily during the 42-day period, which included any changes in reaction to treatment, behavior, illness, food consumption, and body weight. Breathing rates, rectal temperature and pupil changes in the Beagle dogs were assessed once every 2 weeks.

[1] = dog ♂5 (80 mg/kg/day oral), d28
[2] = dog ♂23 (40 mg/kg/day oral), d28
[3] = dogs, 5 mg/kg/day oral, d42 (recovery)
[4] = dogs, 20 mg/kg/day oral, d42 (recovery)
[5] = dogs, 40 mg/kg/day oral, d42 (recovery)
[6] = dogs, 80 mg/kg/day oral, d42 (recovery)

## CCCCCCCNc1cc(/C=C/C(=O)NO)ccc1OCCN(CC)CC [HZ1006]
Beagle dogs; [1]
  Lung absolute weight: 135.9 g
  Lung relative weight: 13.39
Beagle dogs; [2]
  Lung absolute weight: 109.8 g
  Lung relative weight: 12.34
Beagle dogs; dogs, 5 mg/kg/day oral, d28
  Lung absolute weight: 72.7 ± 8.2 g
  Lung relative weight: 6.90 ± 0.90
  Testis absolute weight: 13.550 ± 0.494 g
  Testis relative weight: 1.23 ± 0.03
Beagle dogs; [3]
  Testis absolute weight: 14.050 ± 0.212 g
  Testis relative weight: 1.45 ± 0.04
Beagle dogs; dogs, 20 mg/kg/day oral, d28
  Lung absolute weight: 71.4 ± 12.6 g
  Lung relative weight: 6.96 ± 1.02
  Testis absolute weight: 13.953 ± 0.081 g
  Testis relative weight: 1.31 ± 0.26
Beagle dogs; [4]
  Lung absolute weight: 74.0 ± 8.8 g
  Lung relative weight: 7.37 ± 0.67
  Testis absolute weight: 12.179 ± 0.518 g
  Testis relative weight: 1.21 ± 0.01
Beagle dogs; dogs, 40 mg/kg/day oral, d28
  Lung absolute weight: 92.4 ± 15.4 g
  Lung relative weight: 9.87 ± 2.14
  Testis absolute weight: 6.631 ± 2.855 g
  Testis relative weight: 0.69 ± 0.24
Beagle dogs; [5]
  Lung absolute weight: 70.4 ± 5.0 g
  Lung relative weight: 7.10 ± 1.13
  Testis absolute weight: 9.400 ± 0.063 g
  Testis relative weight: 0.78 ± 0.21
Beagle dogs; dogs, 80 mg/kg/day oral, d28
  Lung absolute weight: 95.8 ± 35.3 g
  Lung relative weight: 9.87 ± 3.27
  Testis absolute weight: 5.660 ± 1.608 g
  Testis relative weight: 0.61 ± 0.23
Beagle dogs; [6]
  Lung absolute weight: 82.9 ± 6.8 g
  Lung relative weight: 8.49 ± 0.95
  Testis absolute weight: 6.017 ± 2.937 g
  Testis relative weight: 0.63 ± 0.31
SD rats; week 4
  body weight reduced compared with the control group: 8%
SD rats; week 5
  body weight reduced compared with the control group: 15%
SD rats; rats, 20-120 mg/kg oral daily, 28 days + 14-day recovery
  survival: All rats survived until the scheduled necropsies
